Paper PMC4898786 (Nature, 2016)

Assays:
[1] = target: ts3 SERT (Y110A, I291A, T439S) (Homo sapiens, UniProt P31645, C554A/C580A/C622A/I291A/T439S/Y110A); experiment: [14C]5-HT uptake in transfected HEK293 cells, Michaelis-Menten; assay type: cell-based
ts2 SERT (I291A, T439S) = ts2 SERT (I291A, T439S) (Homo sapiens, UniProt P31645, C554A/C580A/C622A/I291A/T439S)

## NCCc1c[nH]c2ccc(O)cc12 [serotonin, 5-hydroxytryptamine]
[1]
  serotonin transport activity: No detectable transport activity
ts2 SERT (I291A, T439S)
  Vmax of serotonin transport: 21 ± 5 pmol/min
ts2 SERT (I291A, T439S); read-out: KM of serotonin transport
  Km: 4.5 ± 0.6 µM
